In article PMC11247486, “Improving the In Vivo Stability of [^52Mn]Mn(II) Complexes with 18-Membered Macrocyclic Chelators for PET Imaging” (Journal of Medicinal Chemistry, 2024):

What was measured:
[1] = 1H NMR relaxometry (relaxivity as a function of pH); type: physicochemical; conditions: around neutral pH, 61 MHz and 25 °C
From the text: The studies reported by Branco assumed the formation of a protonated [Mn(HL)]^3+ species for the Mn-PYAN complex characterized by protonation constant log KMnLH = 5.19 (KMnLH = [MnHL]/[MnL] × [H^+]).[42] However, our pH-potentiometric data could be fitted very well without considering the formation of protonated species or hydroxo-complexes. In order to confirm that the equilibrium model used to fit the pH-potentiometric data was correct, we measured the relaxivity (r1p) of aqueous solutions of the complexes as a function of pH (Figure 4). Relaxivity measures the ability of a paramagnetic solute to enhance the longitudinal relaxation rate of solvent water molecules, normalized for a 1 mM concentration of the paramagnetic ion.[45] The r1p values measured around neutral pH values (0.83 and 1.40 mM^–1 s^–1 at 61 MHz and 25 °C for Mn-PYAN and Mn-CHXPYAN, respectively) are typical of complexes that lack one or more water molecules in the inner coordination sphere, the observed relaxivity being the result of the outer-sphere contribution.[46] Relaxivity is fairly constant in the pH range of 6–9 but increases below pH ∼ 6 due to complex dissociation, reaching a relaxivity of 6.00 mM^–1 s^–1 at pH 3, 61 MHz, and 25 °C that is characteristic of the [Mn(H2O)6]^2+ complex.[47] The relaxivity profile matches the speciation diagrams calculated using the equilibrium constants obtained by pH potentiometry very well, which provides support for the equilibrium model used to fit the potentiometric data. It is worth noting that complex dissociation takes place at a lower pH for Mn-CHXPYAN than for Mn-PYAN, as expected, considering their pMn values.
The relaxivity values were calculated from the longitudinal relaxation time of H2O protons (T1) measured at 61 MHz on a Stelar relaxometer connected to a Bruker WP80 NMR electromagnet adapted to variable-field measurements (15–80 MHz proton Larmor frequency). […] The longitudinal relaxation time was measured with the “inversion recovery” method (180°–τ–90°) by using 12 different τ values with a typical 90° pulse width of 10.7 μs, 4 scans. […]

[2] = Transmetalation (dissociation) kinetics of the Mn(II) complexes with Cu2+; type: physicochemical
Experimental: There is a wide consensus among the coordination chemistry community that kinetic inertness is more important for the safe use of metal complexes for imaging applications than thermodynamic stability.[8],[49],[50] Thus, we conducted a detailed investigation of the transmetalation kinetics of the Mn-PYAN and Mn-CHXPYAN complexes, by following their exchange reactions with Cu^2+ in the pH range of 2.5–4.5 (eq 3). [drawing 3] 3
All reactions were carried out in the presence of a large excess of Cu^2+ in order to guarantee the pseudo-first-order kinetic conditions. The transmetalation of Mn-PYAN in the pH range ∼2.0–4.5 is very fast, and thus the rates of the reactions were measured using the stopped-flow technique. Conversely, the exchange reactions of the Mn-CHXPYAN complex are slow and could be studied by using conventional methods. The transmetalation reactions of Mn-PYAN and Mn-CHXPYAN were monitored by following the formation of the corresponding Cu(II) complexes at 295 nm.
The kd values increase upon increase in [H^+] and are independent of the concentration of Cu^2+ as it was found for Mn-PCTA, Mn-PC3AM, and Mn-bispidine complexes.[49],[51] […] The increase in the kd values with increasing H^+ concentration can be interpreted in terms of the extremely slow spontaneous (k0, eq 4) and the proton-assisted (k*[Mn(HL), eq 6) dissociation of Mn(II) complexes. The saturation behavior of the plots of kd versus [H^+] (Figure 5) is characteristic for the equilibrium formation and the accumulation of the *[Mn(HL)] intermediate characterized by the *KH protonation constant (eq 5). The analysis of the rate constants obtained for Mn-CHXPYAN indicates a second-order dependence of kd on [H^+], which can be explained by the proton-assisted dissociation of the *[Mn(HL)] intermediate (k^H*[Mn(HL)], eq 7). [drawing 4] 4 [drawing 5] 5 [drawing 6] 6 [drawing 7] 7
In the presence of excess of the exchanging ion, the transmetalation can be treated as a pseudo-first-order process, and the rate of reactions can be expressed with eq 8, where kd is a pseudo-first-order rate constant and [MnL]t is the total concentration of the complex. [drawing 8] 8
Through consideration of all the possible pathways, the rate of the transmetalation of Mn-PYAN and Mn-CHXPYAN with Cu^2+ can be expressed by eq 9 [drawing 9] 9 Considering the total concentration of the Mn(II) complex ([MnL]t = [MnL] + [*Mn(HL)], as well as the equation defining the protonation constant for the formation of the *[Mn(HL)] intermediate (eq 5) and eq 8, the pseudo-first-order rate constant can be expressed as follows [drawing 10] 10 where k1 = k*[Mn(HL)] × *KH and k2 = k^H*[Mn(HL)] × *KH. The rate and protonation constants characterizing the transmetalation of Mn-PYAN and Mn-CHXPYAN with Cu^2+ have been calculated by fitting the kd values presented in Figure 5 to eq 10 and the values obtained are compared with the corresponding values of Mn-DOTA, Mn-DO3A, Mn-PCTA, Mn-PC3AM^H, and Mn-bispidine in Table 3.
Rates of the metal exchange reactions of Mn-PYAN and Mn-CHXPYAN with Cu^2+ were measured by spectrophotometry by following the formation of the related Cu(II) complexes at 295 nm with an Applied Photophysics DX-17MV stopped-flow instrument and PerkinElmer Lambda 365 UV–vis spectrophotometer using 1.0 cm cells, respectively. The concentration of Mn-PYAN and Mn-CHXPYAN was 1.0 × 10^–4 M, whereas the concentration of Cu^2+ was 10 and 20 times higher in order to guarantee pseudo-first-order conditions. The temperature was maintained at 25 °C and the ionic strength of the solutions was kept constant with 0.15 M NaCl. The exchange rates were studied in the pH range of ca. 2.0–4.5. To keep the pH values constant, monochloroacetic acid (pH range 2.0–3.3), 1,4-dimethylpiperazine (pH range 3.3–4.1), and N-methylpiperazine (pH range 4.1–4.5) buffers were used (0.01 M). […]

SMILES | relaxivity r1p [1] | acid-catalyzed dissociation rate kd ([2]; pH = 5.5, 25 °C) | t1/2 ([2]; pH = 5.5, 25 °C) | k1 lower than that determined for Mn-PYAN ([2]; ratio of k1 values) | t1/2 at pH = 7.4 ([2]; dissociation half-life of the Mn(II) complex, 0.15 M NaCl, 25 °C)
[Mn+2].c1cc2nc(c1)CN[C@@H]1CCCC[C@H]1NCc1cccc(n1)CN[C@@H]1CCCC[C@H]1NC2 [Mn-CHXPYAN] | 1.40 mM^–1 s^–1 | 7.9 × 10^–7 s^–1 | 240 h | 3600 times | –
[Mn+2].c1cc2nc(c1)CNCCNCc1cccc(n1)CNCCNC2 [Mn-PYAN] | 0.83 mM^–1 s^–1 | – | – | – | 5.85 h
